Assay [1] has as its target T1, native aSyn aggregates in A30P transgenic mouse brain sections (Homo sapiens, UniProt P37840, A30P).
T1 construct: from tissue; host or cells: brain sections (midbrain and pons as ROI) of A30P transgenic mice, line B6.D2-Tg(Thy1-SNCA*30P)31Pjk
Briefly: aSyn in vitro displacement assay ([3H]Example-3 autoradiography). The assay is classed as binding, mutant human aSyn gene). Conditions: for inhibition at 1 µM: read-out: PCT_INHIB A30P @ 1 μM (% displacement of [3H]Example-3); for inhibition at 3 µM: 3 μM compound, read-out: PCT_INHIB A30P @ 3 μM. Background: Loss of bound radioactivity is the signal in a displacement assay; it reports binding, not function.

Assay [2] deals with T2, native Aβ aggregates in human AD brain tissue sections (Homo sapiens, UniProt P05067).
T2 construct: native Aβ aggregates in human AD brain tissue samples; from tissue; host or cells: human AD brain tissue sections
T2 sequence (P05067 672-713 limits assumed): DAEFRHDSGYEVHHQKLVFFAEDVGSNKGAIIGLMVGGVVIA
As to the kind of experiment: Aβ in vitro displacement assay (selectivity counterscreen, [3H]Example 3 autoradiography). Conditions: for inhibition at 1 µM: read-out: sel. counterscreen PCT_INHIB AD @ 1 μM (% displacement of [3H]Example 3); for inhibition at 3 µM: 3 μM compound, read-out: sel. counterscreen PCT_INHIB AD @ 3 μM. The assay is classed as binding. On the technique in general: The purpose of a counterscreen is to sort out artefacts and off-target activity.

[3] abbreviates: 1 μM compound, 3 nM [3H]Example-3, A30P transgenic mouse brain sections.
Setting [4] is: 1 μM compound, 3 nM [3H]Example 3, human AD brain sections.
The mark [5] stands for this setting: 3 nM [3H]Example-3, A30P transgenic mouse brain sections.
The mark [6] stands for this setting: 3 nM [3H]Example 3, human AD brain sections.

Read-outs that look alike come from different tables or passages of the source.

For the compound `COc1ccc(C(=O)Nc2ccc(N3CCN(c4ccncn4)CC3)cc2)cc1` [Example 56, 4-Methoxy-N-{4-[4-(pyrimidin-4-yl)piperazin-1-yl]phenyl}benzamide], the inhibition at 1 µM in assay [1] (setting [3]) came to 88%; in assay [2] (setting [4]) it was 98%.

Turning to `CN1CCN(c2ccc(C(=O)Nc3ccc(N4CCN(c5ccccn5)CC4)cn3)cc2)CC1` [Example 81, 4-(4-Methylpiperazin-1-yl)-N-[5-(4-pyridin-2-ylpiperazin-1-yl)pyridin-2-yl]benzamide], the inhibition at 1 µM in assay [1] (setting [3]) turned out to be 90%; in assay [2] (setting [4]) it was 92%.

Consider `N#Cc1ccc(N2CCN(c3ccc(NC(=O)c4ccncn4)cc3)CC2)cc1` [Example 165, N-(4-(4-(4-Cyanophenyl)piperazin-1-yl)phenyl)pyrimidine-4-carboxamide], for which the inhibition at 1 µM in assay [1] (setting [3]) was 86%; in assay [2] (setting [4]), 90%.

For `COc1ccc(C(=O)Nc2cnc(N3CCN(c4ccc(C#N)cc4)CC3)nc2)cc1` [Example 97, N-(2-(4-(4-Cyanophenyl)piperazin-1-yl)pyrimidin-5-yl)-4-methoxybenzamide], the inhibition at 1 µM was 97% in assay [1] (setting [3]) and 106% in assay [2] (setting [4]).

`COc1ccc(C(=O)Nc2ccc(N3CCN(c4ccc(C#N)cn4)CC3)cc2)cc1OC` [Example 159, N-(4-(4-(5-Cyanopyridin-2-yl)piperazin-1-yl)phenyl)-3,4-dimethoxybenzamide]: the results for the inhibition at 1 µM in assay [1] (setting [3]) and in assay [2] (setting [4]) were 88% and 89%, respectively.

Consider `Cc1cccc(C(=O)Nc2ccc(N3CCN(c4ccccn4)CC3)cn2)c1` [Example 54, 3-Methyl-N-(5-(4-(pyridin-2-yl)piperazin-1-yl)pyridin-2-yl)benzamide], for which the inhibition at 1 µM was 82% in assay [1] (setting [3]) and 90% in assay [2] (setting [4]).

For `COc1ccc(C(=O)Nc2ccc(N3CCN(c4ccc(C#N)cc4)CC3)cc2)cc1C` [Example 167, N-(4-(4-(4-Cyanophenyl)piperazin-1-yl)phenyl)-4-methoxy-3-methylbenzamide], the inhibition at 1 µM in assay [1] (setting [3]) came to 91%; in assay [2] (setting [4]) it was 88%.

Take `COc1ccc(C(=O)Nc2ccc(N3CCN(c4ccccn4)CC3)cc2)c(C)c1` [Example 11, 4-Methoxy-2-methyl-N-(4-(4-(pyridin-2-yl)piperazin-1-yl)phenyl)benzamide]: the results for the inhibition at 1 µM in assay [1] (setting [3]) and in assay [2] (setting [4]) were 87% and 86%, respectively.

For `COc1ccc(C(=O)Nc2ccc(N3CCN(c4ccccc4F)CC3)cc2)cc1` [Example 71, N-{4-[4-(2-Fluorophenyl)piperazin-1-yl]phenyl}-4-methoxybenzamide], the inhibition at 1 µM in assay [1] (setting [3]) was found to be 101%; in assay [2] (setting [4]), 100%.

For the compound `COc1ccc(C(=O)Nc2ccc(N3CCN(c4cccc(F)n4)CC3)cc2)cc1` [Example 146, N-(4-(4-(6-Fluoropyridin-2-yl)piperazin-1-yl)phenyl)-4-methoxybenzamide], the inhibition at 1 µM in assay [1] (setting [3]) turned out to be 95%; in assay [2] (setting [4]), 91%.

With `O=C(Nc1cnc(N2CCN(c3ccccn3)CC2)nc1)c1ccc(N2CCOCC2)cc1` [Example 63, 4-Morpholino-N-(2-(4-(pyridin-2-yl)piperazin-1-yl)pyrimidin-5-yl)benzamide], the inhibition at 1 µM in assay [1] (setting [3]) was 95%; in assay [2] (setting [4]) it was 94%.

As for `COc1ccc(C(=O)Nc2ccc(N3CCN(c4cccc(OC)n4)CC3)cc2)cc1` [Example 68, 4-Methoxy-N-{4-[4-(6-methoxypyridin-2-yl)piperazin-1-yl]phenyl}benzamide], the figures for the inhibition at 1 µM in assay [1] (setting [3]) and in assay [2] (setting [4]) were 96% and 90%, respectively.

On to `CC(C)(C)[Si](C)(C)OC(CF)COc1ccc(C(=O)Nc2ccc(N3CCN(c4nccs4)CC3)cc2)cc1` (racemic) [Example 126, rac-4-(2-((tert-Butyldimethylsilyl)oxy)-3-fluoropropoxy)-N-(4-(4-(thiazol-2-yl)piperazin-1-yl)phenyl)benzamide], for which the inhibition at 1 µM is 82% in assay [1] and 89% in assay [2].

`O=C(Nc1ccc(N2CCN(c3cccnc3)CC2)cc1)c1ccc(O)cc1` [Example 138, 4-Hydroxy-N-[4-(4-pyridin-3-ylpiperazin-1-yl)phenyl]benzamide]: the inhibition at 1 µM in assay [1] (setting [3]) was 82%; in assay [2] (setting [4]) it was 89%.

On to `COc1ccc(C(=O)Nc2ccc(N3CCN(c4ccncc4C)CC3)cc2)cc1` [Example 83, Acetic acid; 4-Methoxy-N-[4-[4-(3-methyl-4-pyridyl)piperazin-1-yl]phenyl]benzamide], for which the values for the inhibition at 1 µM in assay [1] (setting [3]) and in assay [2] (setting [4]) were 86% and 95%, respectively.

Take `COc1ccc(C(=O)Nc2ccc(N3CCN(c4ccc(N(C)C)cn4)CC3)cc2)cc1` [Example 142, N-(4-(4-(5-(Dimethylamino)pyridin-2-yl)piperazin-1-yl)phenyl)-4-methoxybenzamide]: the inhibition at 1 µM in assay [1] (setting [3]) and in assay [2] (setting [4]) was 91% throughout.

Turning to `COc1ccc(C(=O)Nc2ccc(N3CCN(c4ccc(C)cn4)CC3)cc2)cn1` [Example 4, 6-Methoxy-N-[4-[4-(5-methyl-2-pyridyl)piperazin-1-yl]phenyl]pyridine-3-carboxamide], the inhibition at 1 µM was found to be 89% in assay [1] (setting [3]) and 91% in assay [2] (setting [4]).

Regarding `COc1ccc(C(=O)Nc2cnc(N3CCN(c4ccccn4)CC3)cn2)c(F)c1` [Example 84, 2-Fluoro-4-methoxy-N-(5-(4-(pyridin-2-yl)piperazin-1-yl)pyrazin-2-yl)benzamide], the inhibition at 1 µM was 88% in assay [1] (setting [3]) and 100% in assay [2] (setting [4]).

Consider `COc1ccc(C(=O)Nc2ccc(N3CCN(c4ncncn4)CC3)cc2)cc1` [Example 55, 4-Methoxy-N-{4-[4-(1,3,5-triazin-2-yl)piperazin-1-yl]phenyl}benzamide], for which the inhibition at 1 µM amounted to 81% in assay [1] (setting [3]) and 95% in assay [2] (setting [4]).

Take `O=C(Nc1ccc(N2CCN(c3ccccn3)CC2)cc1)c1ccc2c(c1)OCCO2` [Example 14, N-(4-(4-(Pyridin-2-yl)piperazin-1-yl)phenyl)-2,3-dihydrobenzo[b][1,4]dioxine-6-carboxamide]: the inhibition at 1 µM came to 91% in assay [1] (setting [3]) and 96% in assay [2] (setting [4]).

Turning to `COc1ccc(C(=O)Nc2ccc(N3CCN(c4ccccn4)CC3)cc2)cc1` [Example 3, 4-Methoxy-N-[4-(4-pyridin-2-ylpiperazin-1-yl)phenyl]benzamide], the inhibition at 3 µM in assay [1] (setting [5]) and in assay [2] (setting [6]) was 100% each time.

As to `O=C(Nc1cnc(N2CCN(c3ccccn3)CC2)cn1)c1ccc(N2CCOCC2)cc1` [Example 88, 4-Morpholino-N-(5-(4-(pyridin-2-yl)piperazin-1-yl)pyrazin-2-yl)benzamide], the inhibition at 1 µM in assay [1] (setting [3]) amounted to 87%; in assay [2] (setting [4]), 71%.

In the case of `O=C(Nc1ccc(N2CCN(c3ccccn3)CC2)cc1)c1ccc(N2CCOCC2)cc1` [Example 8, 4-Morpholino-N-(4-(4-(pyridin-2-yl)piperazin-1-yl)phenyl)benzamide], the inhibition at 1 µM in assay [1] (setting [3]) worked out at 93%; in assay [2] (setting [4]) it was 86%.

For the compound `COc1ccc(C(=O)Nc2ccc(N3CCN(c4ccccn4)CC3)cc2C)c(F)c1` [Example 29, 2-Fluoro-4-methoxy-N-(2-methyl-4-(4-(pyridin-2-yl)piperazin-1-yl)phenyl)benzamide], the inhibition at 1 µM in assay [1] (setting [3]) worked out at 81%; in assay [2] (setting [4]) it was 83%.

On to `COc1ccc(C(=O)Nc2ccc(N3CCN(c4ccccn4)CC3)cn2)nc1` [Example 76, 5-Methoxy-N-(5-(4-(pyridin-2-yl)piperazin-1-yl)pyridin-2-yl)picolinamide], for which the inhibition at 1 µM in assay [1] (setting [3]) was determined as 94%; in assay [2] (setting [4]), 91%.

With `COc1ccc(C(=O)Nc2ccc(N3CCN(c4ccccn4)CC3)c(F)c2)cc1` [Example 106, N-[3-Fluoro-4-[4-(2-pyridyl)piperazin-1-yl]phenyl]-4-methoxy-benzamide], the values for the inhibition at 1 µM in assay [1] (setting [3]) and in assay [2] (setting [4]) were 82% and 88%, respectively.

Regarding `COc1ccc(C(=O)Nc2ccc(N3CCN(c4ccc(C#N)cc4)CC3)cn2)cc1` [Example 96, N-(5-(4-(4-Cyanophenyl)piperazin-1-yl)pyridin-2-yl)-4-methoxybenzamide], the results for the inhibition at 1 µM in assay [1] (setting [3]) and in assay [2] (setting [4]) were 84% and 66%, respectively.

Turning to `COc1ccc(C(=O)Nc2ccc(N3CCN(c4cc(OC)ccn4)CC3)cc2)cc1` [Example 82, 4-Methoxy-N-[4-[4-(4-methoxy-2-pyridyl)piperazin-1-yl]phenyl]benzamide], the inhibition at 1 µM in assay [1] (setting [3]) was found to be 91%; in assay [2] (setting [4]) it was 106%.

Consider `COc1ccc(C(=O)Nc2ccc(N3CCN(c4ccc(C#N)cn4)CC3)cc2)cc1C` [Example 170, N-(4-(4-(5-Cyanopyridin-2-yl)piperazin-1-yl)phenyl)-4-methoxy-3-methylbenzamide], for which the inhibition at 1 µM came to 86% in assay [1] (setting [3]) and 82% in assay [2] (setting [4]).

Consider `C#CCOc1ccc(C(=O)Nc2ccc(N3CCN(c4ccc(C#N)cn4)CC3)cc2)cc1` [Example 174, N-[4-[4-(5-Cyano-2-pyridyl)piperazin-1-yl]phenyl]-4-prop-2-ynoxy-benzamide], for which the inhibition at 3 µM in assay [1] (setting [5]) was 87%; in assay [2] (setting [6]) it was 100%.

Consider `COc1ccc(C(=O)Nc2ccc(N3CCN(c4cc(C)ccn4)CC3)cc2)cc1` [Example 102, 4-Methoxy-N-[4-[4-(4-methyl-2-pyridyl)piperazin-1-yl]phenyl]benzamide], for which the inhibition at 1 µM in assay [1] (setting [3]) turned out to be 89%; in assay [2] (setting [4]), 88%.

(Values after patent US11541132B2, “Radiolabeled compounds” (Hoffmann-La Roche Inc., priority 2017, dated 2023).)
